Results published in US11730717B1, “Melanin-inspired antimicrobial” (The Board of Regents for the Oklahoma Agricultural and …, priority 2020, dated 2023).
“Also recorded” adds a separate entry of the source.

Legend:
[1] = system: MRSA; assay: Scanning electron microscopy of treated bacteria; format: cell-based, Staphylococcus aureus; details: 0.01 mg/mL for 30 minutes
Description: MRSA was grown overnight in 10 mL of LB broth, sub-cultured (5 mL of overnight culture added to 20 mL LB) and grown for 3 h. MRSA culture (300 μL) were removed, placed into a 1.5 mL tube, and treated with DMSO or EIPE-1 (0.01 mg/mL) for 30 minutes. Each sample was placed on glass coverslips (treated with poly-L-lysine) in a 24 well plate and fixed with 2% glutaraldehyde (in 0.1 M sodium cacodylate buffer) for 2 h at room temperature. After fixation, samples were washed three times with 0.1 M sodium cacodylate buffer. Samples were then fixed with 1% osmium tetroxide in water for 1 h at room temperature and were then washed three times with 0.1 M sodium cacodylate buffer. The samples were then dehydrated with an ethanol series (once with 50%, 70%, 90%, 95% and thrice with 100% ethanol). Samples were dried using hexamethyldisilazane (HAMIDS) and then were mounted on stubs. Finally, samples were coated with gold and palladium using an automated sputter coater. Micrographs were acquired using Quanta 600 Scanning electron microscope.
To visualize potential membrane changes, DMSO and EIPE-1 treated MRSA were prepped and visualized by scanning electron microscopy (FIG. 4B). […] FIG. 4(C) contains bar charts that show the percentage of live and dead MRSA from 20 microscopy fields of view.

[2] = system: Enterococcus faecalis; assay: Disc agar diffusion assay; format: cell-based; details: Group 2: Gram-positive organisms
Description: (§1) As a further test of an embodiment, the antibacterial properties of EIPE-1 were tested across a large panel of organisms. EIPE-1 was dissolved in DMSO, impregnated onto sterile filter paper disks, and DMSO served as the untreated control according to the following procedure: • 1. Prepare a 2.5 μg/μL stock solution of EIPE-1 by micro pipetting 200 μL of DMSO into 2.0 mL Eppendorf Tube containing 0.5 mg of EIPE-1. Dissolve with vortex agitation and store at 4° C. • 2. Use forceps to pick up sterile 6.0 mm blank paper disks. Make sure to touch only one side of disc as lightly as possible. While holding blank paper disc, deliver 10.0 μL of the 2.5 μg/μL EIPE-1 solution by touching the micropipette tip to the center of the blank paper disc. Lean the impregnated disc up against the side of a small sterile glass petri dish. Follow same procedure for DMSO control. Allow disks several hours to dry under flowing sterile air. • 3. Inoculate starter cultures using cells from working culture cultivated on Mueller-Hinton Agar (MHA; Difco Laboratories). Starters consist of ˜20 mL of Mueller-Hinton Broth (MHB; Difco Laboratories) in 125-mL culture flasks. Incubate starter cultures in an Excella E24 Benchtop Incubator Shaker (New Brunswick Scientific Co., Inc., Edison, N.J., USA) at 37° C. and 180 rpm for 15-18 hours. • 4. Pour at least 5.0 mL of NMB into 18-mL Kimax tubes. Use a Pasteur pipette to deliver enough of the starter culture cell suspension to reach an optical density (OD620) of 0.025 (Spectronic™ 20 optical spectrophotometer; Thermo Electron Corp., Madison, Wis., USA). Ensure that both transmittance and absorbance are set to 0.0 using a blank NMB sample. Incubate in rotary shaking incubator at 37° C. and 180 rpm until optical density reaches 0.1. • 5. Deliver 100 μL of test culture to the middle of a small 100 mm×15 mm Petri dish containing ˜⅛ in thickness of MHA. • 6. Saturate a sterile cotton swab with MHB by dipping the cotton swab into KIMAX® tube with MHB and then touch the swab to the north, south, east, and west side of the KIMAX® tube to remove excess broth. • 7. Streak the inoculum as follows: • a. Start in the center and make four straight lines to the 12, 3, 6, and 9 o'clock position on the petri dish. • b. Start at the 12 o'clock position and streak side to side all the way down the plate to the 6 o'clock position. […] Rotate the petri dish 90° and complete the same side to side streak all the way down the petri dish. • d. Complete step c. twice more. • e. Rotate petri dish 45° and complete the side-to-side streak. • f. Rotate petri dish 90° and complete the side-to-side streak. • 8. Use sterile forceps to transfer the DMSO control paper disc onto the agar surface and pat the paper disc down to ensure flush contact. Use the same technique to deliver EIPE-1 paper disc. • 9. Place petri dish at 4° C. for 1.0 hour to allow EIPE-1 diffusion in the absence of growth. • 10. Incubate petri dish at 37° C. for 18 hours. • 11. Observe for zones of growth inhibition surrounding disks. Measure diameter with electronic caliper and subtract 6.0-mm disc diameter. Results • a) Each organism was initially tested once to serve as a screen.

[3] = system: Escherichia coli ATCC 25922; assay: Disc agar diffusion assay; format: cell-based; details: Group 1: Gram-negative organisms
Description: as §1

[4] = system: Serratia rubidaea ATCC 27593; assay: Disc agar diffusion assay; format: cell-based; details: Group 1: Gram-negative organisms
Description: as §1

[5] = system: Staphylococcus aureus ATCC 29213; assay: Disc agar diffusion assay; format: cell-based
Description: as §1

[6] = system: Staphylococcus aureus SFL 8; assay: Disc agar diffusion assay; format: cell-based
Description: as §1

[7] = system: Staphylococcus epidermidis; assay: Disc agar diffusion assay; format: cell-based
Description: as §1

[8] = system: Cryptococcus neoformans serotype A strain H99; assay: Antifungal MIC assay; format: cell-based
Description: Cryptococcus neoformans serotype A strain H99 as well as Candida ablicans strain SC5314, were readily available in the lab. The stock of cells is stored at −80° C. to preserve the fungi and prevent contamination. The cells were grown and maintained in yeast extract-peptone-dextrose (YPD) media (Difco). Cryptococcus or Candida cells were incubated in YPD broth for 18 hrs at 30° C., in a shaking incubator. After the incubation period, they were washed three times in sterile phosphate-buffered saline (PBS) to remove all remaining residue of YPD. The cells were then quantified by using trypan blue dye exclusion in a hemocytometer.
C. neoformans were suspended in RPMI with MOPS, 0.165M, at a concentration of 0.5×10^3 cells/mL. RPMI MOPS media was added to a 96-well plate in a volume of 100 μL to every well, with the exception of column 1. An additional 80 μL of RPMI MOPS was added to column 4 for a total of 180 μL/per well. Amphotericin B or EIPE-1 was added to columns […] with a volume of 20 μL at a concentration of 1 mg/mL. Contents were mixed, then serially diluted 100 μL down the plate until column 11. The last 100 μL was discarded, leaving column 12 blank. C. neoformans was added at a volume of 100 μL per well from column 4 to column 12, so the final volume of the wells was 200 μL. Plates were incubated at 35° C. in a humid incubator for 48 hrs.

[9] = Group 3: Gram-positive organisms

COC(=O)c1cc2c(C#Cc3ccc(OCCC[N+](C)(C)C)cc3)c(OC)c(OC)c(C#Cc3ccc(OCCC[N+](C)(C)C)cc3)c2n1C [EIPE-1, 3,3′-((((5,6-dimethoxy-2-(methoxycarbonyl)-1-methyl-1H-indole-4,7-diyl)bis(ethyne-2,1-diyl))bis(4,1-phenylene))bis(oxy))bis(N,N,N-trimethylpropan-1-aminium) iodide]
cell membrane appearance by SEM [1]: cell membrane damage; also recorded: damaged cell membranes | susceptibility group in disc diffusion screen [2]: resistant | susceptibility group in disc diffusion screen [3]: resistant | susceptibility group in disc diffusion screen [4]: resistant | susceptibility group in disc diffusion screen [5, 9]: susceptible | zone of inhibition at 25 µg/disc ([5]; Staphylococcus aureus, ATCC29213, S. aureus ATCC 29213, 25 μg per disk, zone minus disk diameter (6.0mm), read-out: Inhibition Zone Diameter (mm) ± SD): 2.2 ± 0.6 mm | zone of inhibition at 250 µg/disc ([5]; Staphylococcus aureus, ATCC29213, S. aureus ATCC 29213, 250 μg per disk, zone minus disk diameter (6.0mm), read-out: Inhibition Zone Diameter (mm) ± SD): 2.9 ± 0.3 mm | susceptibility group in disc diffusion screen [6, 9]: susceptible | zone of inhibition at 25 µg/disc ([6]; Staphylococcus aureus, SFL8, S. aureus SFL 8, 25 μg per disk, zone minus disk diameter (6.0mm), read-out: Inhibition Zone Diameter (mm) ± SD): 2.4 ± 1.3 mm | zone of inhibition at 250 µg/disc ([6]; Staphylococcus aureus, SFL8, S. aureus SFL 8, 250 μg per disk, zone minus disk diameter (6.0mm), read-out: Inhibition Zone Diameter (mm) ± SD): 2.4 ± 0.3 mm | susceptibility group in disc diffusion screen [7, 9]: susceptible | zone of inhibition at 25 µg/disc ([7]; Staphylococcus epidermidis, S. epidermidis, 25 μg per disk, zone minus disk diameter (6.0mm), read-out: Inhibition Zone Diameter (mm) ± SD): 2.6 ± 0.3 mm | zone of inhibition at 250 µg/disc ([7]; Staphylococcus epidermidis, S. epidermidis, 250 μg per disk, zone minus disk diameter (6.0mm), read-out: Inhibition Zone Diameter (mm) ± SD): 3.3 ± 0.5 mm | MIC for C. neoformans [8]: 3.1 µg/mL | Minimum inhibitory concentration (MIC) for the isolate of C. neoformans ([8]; 35° C., 48 hrs, RPMI with MOPS): 1.749 ± 0.1080 µg·mL | MIC ([8]; Cryptococcus neoformans, read-out: MIC for C. neoformans): 1.75 µg/mL | MIC, C. neoformans ([8]; across seven MIC assays): 1.67 µg/mL
